Values joined by “and” are separate entries in the source; they are usually repeats but may differ in a detail not shown here. Equal values may be shown once. Read-outs that look alike come from different tables or passages of the source. One block for each compound: values may come before it.
How the values were obtained:
BMDCs = experiment: LDH release (lytic cell death, pyroptosis) from LPS-primed BMDCs; assay type: cell-based, mouse; conditions: for Average (% positive control): LDH release; for cytotoxicity at 25 µM / cytotoxicity at 50 µM / cytotoxicity at 75 µM / cytotoxicity at 5 µM / cytotoxicity at 100 µM / cytotoxicity at 20 µM / cytotoxicity at 40 µM / cytotoxicity at 80 µM: Mus musculus, BMDC
In short: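 Mouse BMDCs (7-9 days differentiated, GM-CSF) primed with 50 ng ml^−1 E. coli K12 LPS for 3 hours, then exposed 3 hours to compounds (50 μM unless indicated) or activators (nigericin 5 μM; R837, CL097 100 μM). Lytic death measured as LDH release by colorimetric assay, triplicate wells.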

NLRP3 inflammasome = target: T1, NLRP3 inflammasome (Mus musculus, UniProt Q8R4B8); experiment: IL-1β release from LPS-primed BMDCs (ELISA) as readout of NLRP3 inflammasome activation; assay type: cell-based
T1 construct: endogenous in cells; host or cells: primary mouse bone marrow-derived dendritic cells (BMDCs), LPS-primed
In short: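 NLRP3 inflammasome activation was read out as IL-1β released into the supernatant, measured by ELISA. Murine BMDCs were primed with LPS (50 ng ml^−1, 3 hours), then incubated with compounds for 3 hours, with each condition run in three technical replicates. Nigericin at 5 μM acted as the positive control activator, and IL-1β release was also expressed as a percentage of that control.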

NLRP3 = experiment: Inflammasome stimulation (IL-1β, LDH release) in BMDCs from NLRP3 knockout or ASC knockout mice; assay type: cell-based, mouse; conditions: IL-1β and LDH release
Procedure: For canonical inflammasome activation BMDCs after 7-9 days of differentiation were harvested and counted with a Neubauer Chamber (Hecht Assistant) and the concentration was set to 1 Mio cells ml^−1. 100 μl cell suspension per well were seeded in 96-well plates. The cells were primed with 50 ng ml^−1 E. coli K12 ultra-pure LPS for 3 hours and subsequently treated with canonical inflammasome activators or experimental compounds for 3 hours if not indicated differently (incubation time FIG. 4D, 5, 7, 8, 11, 13-18: 3 h, FIG. 12: 4 h). Concentrations of the stimuli were as follows if not indicated differently: 5 μM nigericin, 100 μM imiquimod (also known as R837), 100 μM CL097, 100 μM R848, […] poly(dA:dT), 300 μg ml^−1 MSU. If an inhibitor was used before stimuli treatment, the inhibitor was added after 2.5 hours of priming and it was incubated for 30 minutes before inflammasome activation. Inhibitors were used as follows: 3 μM MCC950, 45 mM KCl, 30 μM ebselen (2-Phenyl-1,2-benzoselenazol-3-one), 5 μM cytochalasin D (see FIGS. 8, 11, 12 and 17).
All inflammasome stimulations were performed in three technical replicates for each condition. Lytic cell death was determined via LDH release (see FIGS. 8, 13-16 and 18), cytokines quantified in cell-free supernatants via ELISA (see FIGS. 4D, 7-9, 11-19) and cell lysates and supernatants analyzed via immunoblotting (see FIGS. 5A and 5B) as previously described in detail (Gross, Olaf, 2012 “Measuring the inflammasome”, Methods in molecular biology, Clifton, N.J., 844, pp. 199-222. Schneider, Katharina S.; Thomas, Christina J.; Groß, Olaf, 2013, “Inflammasome activation and inhibition in primary murine bone marrow-derived cells, and assays for IL-1α, IL-1β, and caspase-1”, Methods in molecular biology, Clifton, N.J., 1040, pp. 117-135).

[1] = compound 50 μM, positive control nigericin 5 μM
[2] = compound 50 μM, LPS-primed BMDCs, read-out: Average LDH release (% of max.)
[3] = single replicates, compound 50 μM, LPS-primed BMDCs, read-out: LDH release (% of max.)
[4] = IL-1β release, compound 50 μM, positive control nigericin 5 μM
[5] = compound 50 μM, LPS-primed BMDCs
[6] = single replicates, compound 50 μM, LPS-primed BMDCs

T1 sequence (Q8R4B8 whole entry): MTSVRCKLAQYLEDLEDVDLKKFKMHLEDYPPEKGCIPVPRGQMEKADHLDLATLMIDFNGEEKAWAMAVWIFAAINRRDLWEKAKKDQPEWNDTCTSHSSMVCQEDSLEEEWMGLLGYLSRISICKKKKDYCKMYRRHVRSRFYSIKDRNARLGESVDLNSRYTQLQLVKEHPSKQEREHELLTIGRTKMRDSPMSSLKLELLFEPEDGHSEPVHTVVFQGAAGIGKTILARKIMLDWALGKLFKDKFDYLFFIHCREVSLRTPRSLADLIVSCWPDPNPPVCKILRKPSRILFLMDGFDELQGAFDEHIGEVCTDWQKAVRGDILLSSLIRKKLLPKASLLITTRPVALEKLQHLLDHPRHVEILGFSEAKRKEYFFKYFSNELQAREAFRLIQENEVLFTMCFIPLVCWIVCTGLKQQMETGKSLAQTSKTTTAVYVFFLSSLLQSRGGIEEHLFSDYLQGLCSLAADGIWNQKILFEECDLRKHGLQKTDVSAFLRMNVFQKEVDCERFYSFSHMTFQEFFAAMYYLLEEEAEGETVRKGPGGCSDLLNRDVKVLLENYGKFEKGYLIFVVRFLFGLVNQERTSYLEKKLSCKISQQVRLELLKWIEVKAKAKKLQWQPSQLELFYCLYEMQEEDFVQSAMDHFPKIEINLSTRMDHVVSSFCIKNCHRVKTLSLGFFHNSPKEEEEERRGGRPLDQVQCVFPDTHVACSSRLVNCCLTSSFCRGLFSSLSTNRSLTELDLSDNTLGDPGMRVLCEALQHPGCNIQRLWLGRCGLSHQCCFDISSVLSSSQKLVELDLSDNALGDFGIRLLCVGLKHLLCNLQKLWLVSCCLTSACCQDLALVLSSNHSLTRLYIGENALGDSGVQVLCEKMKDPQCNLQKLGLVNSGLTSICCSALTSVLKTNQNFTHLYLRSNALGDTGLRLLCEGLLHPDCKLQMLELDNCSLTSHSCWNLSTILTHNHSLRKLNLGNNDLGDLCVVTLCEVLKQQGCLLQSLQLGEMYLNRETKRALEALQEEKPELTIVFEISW

SMILES: S=C(Nc1ccccc1)Nc1ccc2ncccc2c1 [AH4, 1-phenyl-3-(quinolin-6-yl) thiourea]
Average (% positive control) (BMDCs; 25 μM, positive control EN22 10 μM): 24.359 % positive control | Average (% positive control) (BMDCs; 50 μM, positive control EN22 10 μM): 73.142 % positive control | Average (% positive control) (BMDCs; 75 μM, positive control EN22 10 μM): 89.204 % positive control | cytotoxicity at 25 µM (BMDCs; 25 μM, AH series table, read-out: Average LDH release (% of max.)): 18.7% | cytotoxicity at 25 µM (BMDCs; 25 μM, individual replicate values, AH series table, read-out: LDH release (% of max.)): 20% | cytotoxicity at 50 µM (BMDCs; 50 μM, AH series table, read-out: Average LDH release (% of max.)): 56.2% | cytotoxicity at 50 µM (BMDCs; 50 μM, individual replicate values, AH series table, read-out: LDH release (% of max.)): 57.6% | cytotoxicity at 75 µM (BMDCs; 75 μM, individual replicate values, read-out: LDH release (% of max.)): 67.9% | cytotoxicity at 75 µM (BMDCs; 75 μM, read-out: Average LDH release (% of max.)): 68.5% | Average IL-1β (NLRP3 inflammasome; 25 μM, AH series table): 2.151 ng/mL | IL-1β (NLRP3 inflammasome; 25 μM, individual replicate values, AH series table): 2.340 ng/mL and 2.250 ng/mL and 1.863 ng/mL | Average IL-1β (NLRP3 inflammasome; 50 μM, AH series table): 10.000 ng/mL | IL-1β (NLRP3 inflammasome; 50 μM, individual replicate values, AH series table): 10.000 ng/mL | Average IL-1β (NLRP3 inflammasome; 75 μM, AH series table): 9.996 ng/mL | IL-1β (NLRP3 inflammasome; 75 μM, individual replicate values, AH series table): 9.988 ng/ml and 10.000 ng/ml (2×) | Average (% positive control) (NLRP3 inflammasome; IL-1β, 25 μM, positive control EN22 10 μM): 21.507 % positive control | Average (% positive control) (NLRP3 inflammasome; IL-1β, 50 μM, positive control EN22 10 μM): 100.000 % positive control | Average (% positive control) (NLRP3 inflammasome; IL-1β, 75 μM, positive control EN22 10 μM): 99.960 % positive control | characteristics of inflammasome activation in cells isolated from NLRP3 knockout mice (NLRP3): do not occur

SMILES: COCCNC(=O)c1cc(-c2ccn(C3CCCC3)n2)n2ccccc12 [EN54]
characteristics of inflammasome activation in cells isolated from NLRP3 knockout mice (NLRP3): do not occur

SMILES: COCc1cc(F)ccc1NC(=O)NC(c1nc(-c2cccnc2)no1)C(C)C (stereo not shown) [L01.054, 1-[4-fluoro-2-(methoxy-methyl)phenyl]-3-{2-methyl-1-[3-(pyridin-3-yl)-1,2,4-oxadiazol-5-yl]propyl}urea]
Average (% positive control) (BMDCs; [1]): 11.431 % positive control | cytotoxicity at 50 µM (BMDCs; [2]): 8.36% | cytotoxicity at 50 µM (BMDCs; [3]): 7.79% | Average (% positive control) (NLRP3 inflammasome; [4]): 0.947 % positive control | Average IL-1β (NLRP3 inflammasome; [5]): 0.068 ng/mL | IL-1β (NLRP3 inflammasome; [6]): 0.067 ng/mL and 0.062 ng/mL and 0.074 ng/mL

More lines, main results first:

Average IL-1β (NLRP3 inflammasome; section 1.3, 5 μM): 3.664 ng/mL | Average IL-1β (NLRP3 inflammasome; section 1.3, 50 μM): 5.980 ng/mL | Average IL-1β (NLRP3 inflammasome; section 1.3, 100 μM): 5.023 ng/mL | Average (% positive control) (NLRP3 inflammasome; section 1.3, IL-1β release, 5 μM, positive control nigericin 5 μM): 116.295 % positive control | Average (% positive control) (NLRP3 inflammasome; section 1.3, IL-1β release, 50 μM, positive control nigericin 5 μM): 189.7925 % positive control | Average (% positive control) (NLRP3 inflammasome; section 1.3, IL-1β release, 100 μM, positive control nigericin 5 μM): 159.415 % positive control
SMILES: O=C(Nc1cc(C(F)F)ns1)Nc1cc(F)ncc1CO [BRM/BRG1 ATP Inhibitor-1, reference compound]
cytotoxicity at 5 µM (BMDCs; section 1.3, 5 μM, read-out: Average LDH release (% of max.)): 16.6% | cytotoxicity at 50 µM (BMDCs; section 1.3, 50 μM, read-out: Average LDH release (% of max.)): 35.4% | cytotoxicity at 100 µM (BMDCs; section 1.3, 100 μM, read-out: Average LDH release (% of max.)): 24.8% | cytotoxicity at 5 µM (BMDCs; section 1.3, single replicates, 5 μM, read-out: LDH release (% of max.)): 14.1% | cytotoxicity at 50 µM (BMDCs; section 1.3, single replicates, 50 μM, read-out: LDH release (% of max.)): 38.5% | cytotoxicity at 100 µM (BMDCs; section 1.3, single replicates, 100 μM, read-out: LDH release (% of max.)): 27% | Average (% positive control) (BMDCs; section 1.3, 5 μM, positive control nigericin 5 μM): 30.921 % positive control | Average (% positive control) (BMDCs; section 1.3, 50 μM, positive control nigericin 5 μM): 65.959 % positive control | Average (% positive control) (BMDCs; section 1.3, 100 μM, positive control nigericin 5 μM): 46.154 % positive control | IL-1β (NLRP3 inflammasome; section 1.3, single replicates, 5 μM): 3.556 ng/mL and 3.899 ng/mL and 3.537 ng/mL | IL-1β (NLRP3 inflammasome; section 1.3, single replicates, 50 μM): 4.561 ng/mL and 6.642 ng/mL and 6.737 ng/mL | IL-1β (NLRP3 inflammasome; section 1.3, single replicates, 100 μM): 7.150 ng/mL and 3.831 ng/mL and 4.087 ng/mL | characteristics of inflammasome activation in cells isolated from NLRP3 knockout mice (NLRP3): do not occur

Average IL-1β (NLRP3 inflammasome; 20 μM): 2.404 ng/mL | Average IL-1β (NLRP3 inflammasome; 40 μM): 2.655 ng/mL | Average IL-1β (NLRP3 inflammasome; 80 μM): 3.966 ng/mL | Average (% positive control) (NLRP3 inflammasome; IL-1β, 20 μM, positive control EN22): 122.814 % positive control | Average (% positive control) (NLRP3 inflammasome; IL-1β, 40 μM, positive control EN22): 135.661 % positive control | Average (% positive control) (NLRP3 inflammasome; IL-1β, 80 μM, positive control EN22): 202.590 % positive control
SMILES: COc1ccc(NC(=O)Nc2ccc3ncccc3c2)cc1 [JB010, 1-(4-methoxyphenyl)-3-(quinolin-6-yl)urea]
Average (% positive control) (BMDCs; 20 μM, positive control EN22 20 μM): 44.689 % positive control | Average (% positive control) (BMDCs; 40 μM, positive control EN22 20 μM): 62.649 % positive control | Average (% positive control) (BMDCs; 80 μM, positive control EN22 20 μM): 77.427 % positive control | cytotoxicity at 20 µM (BMDCs; 20 μM, individual replicate values, read-out: LDH release (% of max.)): 24.4% | cytotoxicity at 20 µM (BMDCs; 20 μM, read-out: Average LDH release (% of max.)): 23.8% | cytotoxicity at 40 µM (BMDCs; 40 μM, individual replicate values, read-out: LDH release (% of max.)): 31.4% | cytotoxicity at 40 µM (BMDCs; 40 μM, read-out: Average LDH release (% of max.)): 33.4% | cytotoxicity at 80 µM (BMDCs; 80 μM, individual replicate values, read-out: LDH release (% of max.)): 38.6% | cytotoxicity at 80 µM (BMDCs; 80 μM, read-out: Average LDH release (% of max.)): 41.2% | IL-1β (NLRP3 inflammasome; 20 μM, individual replicate values): 2.200 ng/mL and 3.078 ng/mL and 1.934 ng/mL | IL-1β (NLRP3 inflammasome; 40 μM, individual replicate values): 2.727 ng/mL and 2.742 ng/mL and 2.498 ng/mL | IL-1β (NLRP3 inflammasome; 80 μM, individual replicate values): 2.757 ng/mL and 3.613 ng/mL and 5.527 ng/mL | characteristics of inflammasome activation in cells isolated from NLRP3 knockout mice (NLRP3): do not occur

Average (% positive control) (NLRP3 inflammasome; [4]): 2.590 % positive control | Average IL-1β (NLRP3 inflammasome; [5]): 0.186 ng/mL
SMILES: N#CCOc1ccc(NC(=O)Nc2ccccc2)cc1 [L01.002, 1-[4-(cyanomethoxy)-phenyl]-3-phenylurea]
Average (% positive control) (BMDCs; [1]): 13.662 % positive control | cytotoxicity at 50 µM (BMDCs; [2]): 9.99% | cytotoxicity at 50 µM (BMDCs; [3]): 8.07% | IL-1β (NLRP3 inflammasome; [6]): 0.144 ng/mL and 0.249 ng/mL and 0.164 ng/mL

Reference: US20240277658A1, “NLRP3 ACTIVATORS FOR USE IN THE TREATMENT OF INFECTIOUS DISEASES OR CANCER BY ACTIVATING NLRP3 INFLAMMASOME” (ALBERT-LUDWIGS-UNIVERSITÄT FREIBURG, priority 2020, published 2024)
